From patent publication US11173162B2, “Bicyclic heterocycles as FGFR4 inhibitors” (Incyte Corporation, priority 2015, dated 2021) come the findings set out here.

Where only a bound is given, the exact number is not on record here.

In the test the test system is FGFR3 enzyme. The test can be described thus: FGFR Enzymatic Assay (FRET peptide phosphorylation), FGFR3. It counts as biochemical. The note with it: IC50 ratio showing FGFR3 selectivity; Table 2A, pre-incubated for 4 hours. As for the experimental part: The inhibitor potency of the exemplified compounds was measured in an enzyme assay that measures peptide phosphorylation using FRET measurements to detect product formation. Inhibitors were serially diluted in DMSO and a volume of 0.5 μL was transferred to the wells of a 384-well plate.
GraphPad prism3 was used to analyze the data.
On to `COc1cc(OC)c(F)c(N2Cc3cnc(-c4cn(CCN(C)C)nc4C)cc3C3(CC3)C2=O)c1F` [Example 164, 2′-(2,6-difluoro-3,5-dimethoxyphenyl)-6′-(1-(2-(dimethylamino)ethyl)-3-methyl-1H-pyrazol-4-yl)-1′H-spiro[cyclopropane-1,4′-[2,7]naphthyridin]-3′(2′H)-one], for which the FGFR1/FGFR3 is on record as above 3 and the FGFR4/FGFR3 is above 3.

As for `COC(=O)N1CCC(N2C(=O)N(c3c(F)c(OC)cc(OC)c3F)Cc3cnc(-c4cn(C)nc4C)cc32)CC1` [Example 122, Methyl 4-(3-(2,6-difluoro-3,5-dimethoxyphenyl)-7-(1,3-dimethyl-1H-pyrazol-4-yl)-2-oxo-3,4-dihydropyrido[4,3-d]pyrimidin-1(2H)-yl)piperidine-1-carboxylate], the FGFR1/FGFR3 was above 5 and the FGFR4/FGFR3 is above 5.

Take `CCN1C(=O)N(c2c(F)c(OC)cc(OC)c2F)Cc2cnc(-c3ccc(C(=O)NCCO)nc3)cc21` [Example 177, 5-(3-(2,6-difluoro-3,5-dimethoxyphenyl)-1-ethyl-2-oxo-1,2,3,4-tetrahydropyrido[4,3-d]pyrimidin-7-yl)-N-(2-hydroxyethyl)picolinamide]: the FGFR1/FGFR3 is listed as above 5 and the FGFR4/FGFR3 is above 10.

For `COc1cc(OC)c(F)c(N2Cc3cnc(-c4ccc(C5(C#N)CCC5)nc4)cc3N(c3ccncn3)C2=O)c1F` [Example 135, 1-(5-(3-(2,6-difluoro-3,5-dimethoxyphenyl)-2-oxo-1-(pyrimidin-4-yl)-1,2,3,4-tetrahydropyrido[4,3-d]pyrimidin-7-yl)pyridin-2-yl)cyclobutanecarbonitrile], the FGFR1/FGFR3 is above 5 and the FGFR4/FGFR3 was above 10.

On to `COc1cc(OC)c(F)c(N2Cc3cnc(-c4cn(C)nc4C)cc3N(Cc3cnn(CC#N)c3)C2=O)c1F` [Example 125, 2-(4-((3-(2,6-difluoro-3,5-dimethoxyphenyl)-7-(1,3-dimethyl-1H-pyrazol-4-yl)-2-oxo-3,4-dihydropyrido[4,3-d]pyrimidin-1(2H)-yl)methyl)-1H-pyrazol-1-yl)acetonitrile], for which the FGFR1/FGFR3 is above 5 and the FGFR4/FGFR3 was above 5.

In the case of `COc1cc(OC)c(F)c(N2Cc3cnc(-c4cn(C)nc4C)cc3N(c3ccccc3F)C2=O)c1F` [Example 110, 3-(2,6-difluoro-3,5-dimethoxyphenyl)-7-(1,3-dimethyl-1H-pyrazol-4-yl)-1-(2-fluorophenyl)-3,4-dihydropyrido[4,3-d]pyrimidin-2(1H)-one], the FGFR1/FGFR3 is given as above 3 and the FGFR4/FGFR3 was above 5.

On to `COc1cc(OC)c(F)c(N2Cc3cnc(-c4cn(C)nc4C)cc3N(Cc3ccc4c(c3)OCCO4)C2=O)c1F` [Example 38, 3-(2,6-difluoro-3,5-dimethoxyphenyl)-1-((2,3-dihydrobenzo[b][1,4]dioxin-6-yl)methyl)-7-(1,3-dimethyl-1H-pyrazol-4-yl)-3,4-dihydropyrido[4,3-d]pyrimidin-2(1H)-one], for which the FGFR1/FGFR3 was above 5 and the FGFR4/FGFR3 is listed as above 5.

For the compound `COc1cc(OC)c(F)c(N2Cc3cnc(-c4csc(N(C)C)n4)cc3C3(CC3)C2=O)c1F` [Example 160, 2′-(2,6-difluoro-3,5-dimethoxyphenyl)-6′-(2-(dimethylamino)thiazol-4-yl)-1′H-spiro[cyclopropane-1,4′-[2,7]naphthyridin]-3′(2′H)-one], the FGFR1/FGFR3 is recorded as above 5 and the FGFR4/FGFR3 is given as above 5.

With `CCN1C(=O)N(c2c(F)c(OC)cc(OC)c2F)Cc2cnc(-c3ccc(CC#N)cc3)cc21` [Example 180, 2-(4-(3-(2,6-difluoro-3,5-dimethoxyphenyl)-1-ethyl-2-oxo-1,2,3,4-tetrahydropyrido[4,3-d]pyrimidin-7-yl)phenyl)acetonitrile], the FGFR1/FGFR3 is above 5 and the FGFR4/FGFR3 is recorded as above 5.

Regarding `CCN1C(=O)N(c2c(F)c(OC)cc(OC)c2F)Cc2cnc(-c3ccc(CN4CC[C@H](C#N)C4)cc3)cc21` [Example 25, (S)-1-(4-(3-(2,6-difluoro-3,5-dimethoxyphenyl)-1-ethyl-2-oxo-1,2,3,4-tetrahydropyrido[4,3-d]pyrimidin-7-yl)benzyl)pyrrolidine-3-carbonitrile], the FGFR1/FGFR3 is given as above 5 and the FGFR4/FGFR3 is above 5.

In the case of `CCN1C(=O)N(c2c(F)c(OC)cc(OC)c2F)Cc2cnc(-c3cn(CC(=O)N4CCOCC4)nc3C)cc21` [Example 51, 3-(2,6-difluoro-3,5-dimethoxyphenyl)-1-ethyl-7-(3-methyl-1-(2-morpholino-2-oxoethyl)-1H-pyrazol-4-yl)-3,4-dihydropyrido[4,3-d]pyrimidin-2(1H)-one], the FGFR1/FGFR3 was above 1 and the FGFR4/FGFR3 is reported as above 1.

Regarding `CNC(=O)c1ccc(-c2cc3c(cn2)CN(c2c(F)c(OC)cc(OC)c2F)C(=O)C32CC2)cc1` [Example 19, 4-(2′-(2,6-difluoro-3,5-dimethoxyphenyl)-3′-oxo-2′,3′-dihydro-1′H-spiro[cyclopropane-1,4′-[2,7]naphthyridine]-6′-yl)-N-methylbenzamide], the FGFR1/FGFR3 is above 5.

Consider `COc1cc(OC)c(F)c(N2Cc3cnc(-c4cnn(CCN5CCC(OC)CC5)c4)cc3C3(CC3)C2=O)c1F` [Example 152, 2′-(2,6-difluoro-3,5-dimethoxyphenyl)-6′-(1-(2-(4-methoxypiperidin-1-yl)ethyl)-1H-pyrazol-4-yl)-1′H-spiro[cyclopropane-1,4′-[2,7]naphthyridin]-3′(2′H)-one], for which the FGFR1/FGFR3 is listed as above 5 and the FGFR4/FGFR3 is above 3.

Turning to `CCn1cc(-c2cc3c(cn2)CN(c2c(F)c(OC)cc(OC)c2F)C(=O)C32CC2)c(C)n1` [Example 158, 2′-(2,6-difluoro-3,5-dimethoxyphenyl)-6′-(1-ethyl-3-methyl-1H-pyrazol-4-yl)-1′H-spiro[cyclopropane-1,4′-[2,7]naphthyridin]-3′(2′H)-one], the FGFR1/FGFR3 is above 5 and the FGFR4/FGFR3 is given as above 3.

As to `COc1cc(OC)c(F)c(N2Cc3cnc(-c4cn(C)nc4C)cc3N(CC3CC3)C2=O)c1F` [Example 29, 1-(cyclopropylmethyl)-3-(2,6-difluoro-3,5-dimethoxyphenyl)-7-(1,3-dimethyl-1H-pyrazol-4-yl)-3,4-dihydropyrido[4,3-d]pyrimidin-2(1H)-one], the FGFR1/FGFR3 is recorded as above 1 and the FGFR4/FGFR3 is reported as above 5.

Consider `COc1cc(OC)c(F)c(N2Cc3cnc(-c4cn(C)nc4C)cc3N(Cc3cc(C)no3)C2=O)c1F` [Example 35, 3-(2,6-difluoro-3,5-dimethoxyphenyl)-7-(1,3-dimethyl-1H-pyrazol-4-yl)-1-((3-methylisoxazol-5-yl)methyl)-3,4-dihydropyrido[4,3-d]pyrimidin-2(1H)-one], for which the FGFR1/FGFR3 is on record as above 5 and the FGFR4/FGFR3 was above 10.

For the compound `CCCN1C(=O)N(c2c(F)c(OC)cc(OC)c2F)Cc2cnc(-c3cn(C)nc3C)cc21` [Example 30, 3-(2,6-difluoro-3,5-dimethoxyphenyl)-7-(1,3-dimethyl-1H-pyrazol-4-yl)-1-propyl-3,4-dihydropyrido[4,3-d]pyrimidin-2(1H)-one], the FGFR1/FGFR3 was above 1 and the FGFR4/FGFR3 was above 5.

Turning to `COc1cc(OC)c(F)c(N2Cc3cnc(-c4cn(C)nc4C)cc3N(c3cnn(C4CC4)c3)C2=O)c1F` [Example 130, 1-(1-cyclopropyl-1H-pyrazol-4-yl)-3-(2,6-difluoro-3,5-dimethoxyphenyl)-7-(1,3-dimethyl-1H-pyrazol-4-yl)-3,4-dihydropyrido[4,3-d]pyrimidin-2(1H)-one], the FGFR1/FGFR3 is on record as above 5 and the FGFR4/FGFR3 is above 5.

In the case of `COc1cc(OC)c(F)c(N2Cc3cnc(-c4cn(C)nc4C)cc3N(c3cc(F)cc(C#N)c3)C2=O)c1F` [Example 78, 3-(3-(2,6-difluoro-3,5-dimethoxyphenyl)-7-(1,3-dimethyl-1H-pyrazol-4-yl)-2-oxo-3,4-dihydropyrido[4,3-d]pyrimidin-1(2H)-yl)-5-fluorobenzonitrile], the FGFR1/FGFR3 is reported as above 5 and the FGFR4/FGFR3 is above 3.

For the compound `COc1cc(OC)c(F)c(N2Cc3cnc(-c4cn(C)nc4C)cc3N(C3CCN(S(C)(=O)=O)CC3)C2=O)c1F` [Example 71, 3-(2,6-difluoro-3,5-dimethoxyphenyl)-7-(1,3-dimethyl-1H-pyrazol-4-yl)-1-(1-(methylsulfonyl)piperidin-4-yl)-3,4-dihydropyrido[4,3-d]pyrimidin-2(1H)-one], the FGFR1/FGFR3 is listed as above 5 and the FGFR4/FGFR3 is above 3.

`COc1cc(OC)c(F)c(N2Cc3cnc(-c4cn(C)nc4C)cc3N(Cc3cc(C(C)C)on3)C2=O)c1F` [Example 93, 3-(2,6-difluoro-3,5-dimethoxyphenyl)-7-(1,3-dimethyl-1H-pyrazol-4-yl)-1-((5-isopropylisoxazol-3-yl)methyl)-3,4-dihydropyrido[4,3-d]pyrimidin-2(1H)-one]: the FGFR1/FGFR3 is reported as above 5 and the FGFR4/FGFR3 is above 5.

Turning to `COc1cc(OC)c(F)c(N2Cc3cnc(-c4cn(C5CCN(C)C5)nc4C)cc3C3(CC3)C2=O)c1F` (centres unmarked) [Example 163, 2′-(2,6-difluoro-3,5-dimethoxyphenyl)-6′-(3-methyl-1-(1-methylpyrrolidin-3-yl)-1H-pyrazol-4-yl)-1′H-spiro[cyclopropane-1,4′-[2,7]naphthyridin]-3′(2′H)-one], the FGFR1/FGFR3 is given as above 3 and the FGFR4/FGFR3 was above 3.

For the compound `COc1cc(OC)c(F)c(N2Cc3cnc(-c4cn(C)nc4C)cc3N(CCc3cnn(C)c3)C2=O)c1F` [Example 114, 3-(2,6-difluoro-3,5-dimethoxyphenyl)-7-(1,3-dimethyl-1H-pyrazol-4-yl)-1-(2-(1-methyl-1H-pyrazol-4-yl)ethyl)-3,4-dihydropyrido[4,3-d]pyrimidin-2(1H)-one], the FGFR1/FGFR3 is given as above 3 and the FGFR4/FGFR3 was above 5.

For the compound `COc1cc(OC)c(F)c(N2Cc3cnc(-c4cn(C)nc4C)cc3N(c3ccc4[nH]ncc4c3)C2=O)c1F` [Example 134, 3-(2,6-difluoro-3,5-dimethoxyphenyl)-7-(1,3-dimethyl-1H-pyrazol-4-yl)-1-(1H-indazol-5-yl)-3,4-dihydropyrido[4,3-d]pyrimidin-2(1H)-one], the FGFR1/FGFR3 is reported as above 3 and the FGFR4/FGFR3 was above 5.
